According to publication PMC6374188 (Organic & biomolecular chemistry, 2019):

Legend:
GlbB [1] = target: T1, GlbB (Caldimonas brevitalea, UniProt A8KCI8); experiment: steady-state kinetics of hydroxylation; format: biochemical; settings: Fe(II)/alpha-ketoglutarate-dependent C4 hydroxylation
T1 sequence (A8KCI8 1-286): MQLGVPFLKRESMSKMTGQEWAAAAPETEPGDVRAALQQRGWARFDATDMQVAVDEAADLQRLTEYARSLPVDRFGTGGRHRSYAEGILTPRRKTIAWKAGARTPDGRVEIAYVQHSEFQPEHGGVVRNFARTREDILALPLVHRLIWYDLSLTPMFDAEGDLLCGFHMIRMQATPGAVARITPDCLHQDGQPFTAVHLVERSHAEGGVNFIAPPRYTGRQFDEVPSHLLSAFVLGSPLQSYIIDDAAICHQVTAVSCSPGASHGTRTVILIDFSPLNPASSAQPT

GlbB [2] = target: T1, GlbB; experiment: steady-state kinetics of oxidation; format: biochemical; settings: Fe(II)/alpha-ketoglutarate-dependent; product is the sulfoxide

Question: How did the KM (GlbB [1]) turn out when `NCCCC[C@H](N)C(=O)O` [compound 3, L-Lys] was run?
Answer: steady-state kinetic parameters were obtained for hydroxylation of L-Lys, L-Leu, and L-Met (Figure S5)

Question: Which KM (GlbB [1]) does the source give for `CC(C)C[C@H](N)C(=O)O` [L-Leu] here?
Answer: steady-state kinetic parameters were obtained for hydroxylation of L-Lys, L-Leu, and L-Met (Figure S5)

Question: Which KM (GlbB [2]) does the source give for `CSCC[C@H](N)C(=O)O` [L-Met] here?
Answer: steady-state kinetic parameters were obtained for hydroxylation of L-Lys, L-Leu, and L-Met (Figure S5)
